Measurements published in the supplement of paper PMC10307832.

How the values were obtained:
Assay in all cases: relative viability (nuclei count vs DMSO), 5 days (fraction); higher = more cells survive
[1] = compound: C1CC(C1)(C(=O)O)C(=O)O.[NH2-].[NH2-].[Pt+2] [Carboplatin] + Nc1nc2[nH]cc(CCc3ccc(C(=O)N[C@@H](CCC(=O)O)C(=O)O)cc3)c2c(=O)[nH]1 [Pemetrexed] (partner 0.2 µM)
Method in brief: (§1)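 Lung cancer cell lines in 1536-well plates got either a single drug or a fixed anchor-drug dose together with five library-drug doses (not always all listed) in √10 steps, by pin tool, on the day after seeding. Nuclei were counted after 5 days, and relative viability is the treated-to-vehicle ratio of nuclei counts. Values are medians of duplicate plates.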

[2] = compound: C1CC(C1)(C(=O)O)C(=O)O.[NH2-].[NH2-].[Pt+2] [Carboplatin] + O=C(CCCCCCC(=O)Nc1ccccc1)NO [Vorinostat] (partner 1 µM)
Method in brief: as §1

[3] = compound: NS(=O)(=O)OC[C@@H]1C[C@@H](n2ccc3c(N[C@H]4CCc5ccccc54)ncnc32)C[C@@H]1O [MLN4924] + O=C(c1cc(Cc2n[nH]c(=O)c3ccccc23)ccc1F)N1CCN(C(=O)C2CC2)CC1 [Olaparib] (partner 8 µM)
Method in brief: as §1

[4] = compound: NS(=O)(=O)OC[C@@H]1C[C@@H](n2ccc3c(N[C@H]4CCc5ccccc54)ncnc32)C[C@@H]1O [MLN4924] + Cc1cc(Nc2cc(N3CCN(C)CC3)nc(Sc3ccc(NC(=O)C4CC4)cc3)n2)n[nH]1 [Tozasertib] (partner 0.1 µM)
Method in brief: as §1

Cell Line: LC-2-ad
- relative viability ([1]; first compound 0.08 µM): 0.278
- relative viability ([1]; first compound 0.253 µM): 0.28
- relative viability ([1]; first compound 0.8 µM): 0.294
- relative viability ([1]; first compound 2.53 µM): 0.308
- relative viability ([1]; first compound 8 µM): 0.272
- relative viability ([2]; first compound 0.08 µM): 0.724
- relative viability ([2]; first compound 0.253 µM): 0.746
- relative viability ([2]; first compound 0.8 µM): 0.659
- relative viability ([2]; first compound 2.53 µM): 0.728
- relative viability ([2]; first compound 8 µM): 0.594
- relative viability ([3]; first compound 0.04 µM): 0.68
- relative viability ([3]; first compound 0.1265 µM): 0.53
- relative viability ([3]; first compound 0.4 µM): 0.335
- relative viability ([3]; first compound 1.265 µM): 0.269
- relative viability ([3]; first compound 4 µM): 0.197
- relative viability ([4]; first compound 0.04 µM): 0.434
- relative viability ([4]; first compound 0.1265 µM): 0.344
- relative viability ([4]; first compound 0.4 µM): 0.362
- relative viability ([4]; first compound 1.265 µM): 0.218
- relative viability ([4]; first compound 4 µM): 0.198

Cell Line: NCI-H1734
- relative viability ([1]; first compound 0.08 µM): 0.423
- relative viability ([1]; first compound 0.253 µM): 0.422
- relative viability ([1]; first compound 0.8 µM): 0.495
- relative viability ([1]; first compound 2.53 µM): 0.408
- relative viability ([1]; first compound 8 µM): 0.419
- relative viability ([2]; first compound 0.08 µM): 0.823
- relative viability ([2]; first compound 0.253 µM): 0.83
- relative viability ([2]; first compound 0.8 µM): 0.78
- relative viability ([2]; first compound 2.53 µM): 0.779
- relative viability ([2]; first compound 8 µM): 0.545
- relative viability ([3]; first compound 0.04 µM): 0.652
- relative viability ([3]; first compound 0.1265 µM): 0.547
- relative viability ([3]; first compound 0.4 µM): 0.128
- relative viability ([3]; first compound 1.265 µM): 0.108
- relative viability ([3]; first compound 4 µM): 0.107
- relative viability ([4]; first compound 0.04 µM): 0.261
- relative viability ([4]; first compound 0.1265 µM): 0.267
- relative viability ([4]; first compound 0.4 µM): 0.154
- relative viability ([4]; first compound 1.265 µM): 0.12
- relative viability ([4]; first compound 4 µM): 0.0994

Cell Line: NCI-H460
- relative viability ([1]; first compound 0.08 µM): 0.0702
- relative viability ([1]; first compound 0.253 µM): 0.0594
- relative viability ([1]; first compound 0.8 µM): 0.0708
- relative viability ([1]; first compound 2.53 µM): 0.068
- relative viability ([1]; first compound 8 µM): 0.0641
- relative viability ([2]; first compound 0.08 µM): 0.761
- relative viability ([2]; first compound 0.253 µM): 0.629
- relative viability ([2]; first compound 0.8 µM): 0.582
- relative viability ([2]; first compound 2.53 µM): 0.235
- relative viability ([2]; first compound 8 µM): 0.076
- relative viability ([3]; first compound 0.04 µM): 0.395
- relative viability ([3]; first compound 0.1265 µM): 0.372
- relative viability ([3]; first compound 0.4 µM): 0.427
- relative viability ([3]; first compound 1.265 µM): 0.0925
- relative viability ([3]; first compound 4 µM): 0.0401
- relative viability ([4]; first compound 0.04 µM): 0.464
- relative viability ([4]; first compound 0.1265 µM): 0.484
- relative viability ([4]; first compound 0.4 µM): 0.421
- relative viability ([4]; first compound 1.265 µM): 0.228
- relative viability ([4]; first compound 4 µM): 0.0266

Cell Line: NCI-H838
- relative viability ([1]; first compound 0.08 µM): 0.271
- relative viability ([1]; first compound 0.253 µM): 0.285
- relative viability ([1]; first compound 0.8 µM): 0.236
- relative viability ([1]; first compound 2.53 µM): 0.244
- relative viability ([1]; first compound 8 µM): 0.251
- relative viability ([2]; first compound 0.08 µM): 0.733
- relative viability ([2]; first compound 0.253 µM): 0.705
- relative viability ([2]; first compound 0.8 µM): 0.728
- relative viability ([2]; first compound 2.53 µM): 0.626
- relative viability ([2]; first compound 8 µM): 0.608
- relative viability ([3]; first compound 0.04 µM): 0.434
- relative viability ([3]; first compound 0.1265 µM): 0.243
- relative viability ([3]; first compound 0.4 µM): 0.197
- relative viability ([3]; first compound 1.265 µM): 0.124
- relative viability ([3]; first compound 4 µM): 0.136
- relative viability ([4]; first compound 0.04 µM): 0.275
- relative viability ([4]; first compound 0.1265 µM): 0.288
- relative viability ([4]; first compound 0.4 µM): 0.204
- relative viability ([4]; first compound 1.265 µM): 0.123
- relative viability ([4]; first compound 4 µM): 0.118
